Publication PMC5613016, “GRL-09510, a Unique P2-Crown-Tetrahydrofuranylurethane -Containing HIV-1 Protease Inhibitor, Maintains Its Favorable Antiviral Activity against Highly-Drug-Resistant HIV-1 Variants in vitro” (Scientific Reports, 2017)
Where two headings read alike, the source gives them in different places.

Legend:
HIV-1NL4-3 [1] = tested on: HIV-1NL4-3; design: method as in PMID 14506019; settings: HIV-1NL4-3 in MT-4 cells, increasing concentrations; previously reported; cited from earlier work
[2] = Cytotoxicity against MT-2 cells (MTT assay); format: cell-based; settings: human
Protocol: (§1) The susceptibility of HIV-1LAI or HIV-2ROD to various compounds was determined as previously described[20]–[22]. Briefly, MT-2 cells (10^4/ml) were exposed to 100 TCID50 of HIV-1LAI or HIV-2ROD in the presence or absence of various concentrations of compounds in 96-well plates and were incubated at 37 °C for 7 days. After incubation, 100 μl of the medium was removed from each well, 3-(4,5-dimetylthiazol-2-yl)-2,5-diphenyltetrazolium bromide (MTT) solution (10 μl, 7.5 mg/ml in PBS) was added to each well, followed by incubation at 37 °C for 2 h. […] To determine the sensitivity of clinically isolated HIV-1s to compounds, PHA-PBMC (10^6/ml) were exposed to 50 TCID50 of each HIV-1 and cultured in the presence or absence of various concentrations of compounds in 10-fold serial dilutions in 96-well plates. In determining the drug-susceptibility of certain laboratory HIV-1 strains, MT-4 cells were employed as target cells as previously described[23],[24]. MT-4 cells (10^5/ml) were exposed to 100 TCID50 of drug-resistant HIV-1s in the presence or absence of various concentrations of compounds and were incubated at 37 °C. On day 7, the supernatants were harvested and the amounts of p24 were determined by using a fully-automated chemiluminescent enzyme immunoassay system (Lumipulse f: Fujirebio, Tokyo)[35]–[37]. […] All assays were performed in duplicate, and EC50 shown in this report represent average values of two to four independent experiments. PHA-PBMCs were derived from a single donor in each independent experiment. The research protocols described in the present study were carried out in accordance with relevant guidelines and regulations, and were approved in Ethics Committee for Epidemiological and General Research at the Faculty of Life Sciences, Kumamoto University.

[3] = tested on: HIV-192UG029 (subtype A, X4); experiment: p24 production inhibition in PHA-PBMC; format: cell-based, HIV-1; settings: Human immunodeficiency virus 1, read-out: EC50 HIV-192UG029 (subtype A, X4)
Protocol: as §1

HIV-1LAI = experiment: microbe, parasite or virus in culture; format: cell-based; settings: for EC50: 100 TCID50, MTT assay, read-out: EC50 Against HIV-1LAI; for Selectivity Index (CC50/EC50) MT2/HIV-1LAI: ratio of CC50 to EC50 against HIV-1LAI
Protocol: as §1

HIV-2ROD = experiment: microbe, parasite or virus in culture; format: cell-based; settings: for EC50: 100 TCID50, MTT assay, read-out: EC50 Against HIV-2ROD; for Selectivity Index (CC50/EC50) MT2/HIV-2ROD: ratio of CC50 to EC50 against HIV-2ROD
Protocol: as §1

HIV-1MDR/C = experiment: p24 production inhibition in PHA-PBMC; format: cell-based; settings: for EC50: p24 Gag production; for fold change of EC50 HIV-1MDR/C: compared to EC50 for HIV-1ERS104pre
Protocol: as §1

HIV-1MDR/B = experiment: p24 production inhibition in PHA-PBMC; format: cell-based; settings: for EC50: p24 Gag production; for fold change of EC50 HIV-1MDR/B: compared to EC50 for HIV-1ERS104pre
Protocol: as §1

HIV-1BaL (subtype B, R5) = experiment: p24 production inhibition in PHA-PBMC; format: cell-based; settings: Human immunodeficiency virus 1, PHA-PBMC, p24 Gag production
Protocol: as §1

HIV-1MDR/G = experiment: p24 production inhibition in PHA-PBMC; format: cell-based; settings: for EC50: p24 Gag production; for fold change of EC50 HIV-1MDR/G: compared to EC50 for HIV-1ERS104pre
Protocol: as §1

[4] = tested on: HIV-1ME46 (subtype B, X4/R5); experiment: p24 production inhibition in PHA-PBMC; format: cell-based; settings: Human immunodeficiency virus 1, PHA-PBMC, p24 Gag production
Protocol: as §1

HIV-1MDRmix DRV ^R 20P = experiment: p24 production inhibition in PHA-PBMC; format: cell-based; settings: for fold change of EC50 HIV-1MDRmix DRV ^R 20P: compared to EC50 for HIV-1ERS104pre
Protocol: as §1

HIV-1MDR/TM = experiment: p24 production inhibition in PHA-PBMC; format: cell-based; settings: for EC50: p24 Gag production; for fold change of EC50 HIV-1MDR/TM: compared to EC50 for HIV-1ERS104pre
Protocol: as §1

[5] = tested on: HIV-1ERS104pre (wild-type); experiment: p24 production inhibition in PHA-PBMC; format: cell-based; settings: p24 Gag production
Protocol: as §1

HIV-1APV ^R 5μM = experiment: p24 production inhibition in MT-4 cells; format: cell-based; settings: for fold change of EC50 HIV-1APV ^R 5μM: number in parentheses, compared to HIV-1NL4-3
Protocol: as §1

HIV-1LPV ^R 5μM = experiment: p24 production inhibition in MT-4 cells; format: cell-based; settings: for fold change of EC50 HIV-1LPV ^R 5μM: number in parentheses, compared to HIV-1NL4-3
Protocol: as §1

HIV-1ATV ^R 5μM = experiment: p24 production inhibition in MT-4 cells; format: cell-based; settings: for fold change of EC50 HIV-1ATV ^R 5μM: number in parentheses, compared to HIV-1NL4-3
Protocol: as §1

HIV-1_9510 ^R 36P = experiment: p24 production inhibition in MT-4 cells; format: cell-based
Protocol: as §1

HIV-1NL4-3 [6] = experiment: p24 production inhibition in MT-4 cells; format: cell-based; settings: p24 Gag production, Table 3
Protocol: as §1

MT-2 cells = experiment: Cytotoxicity against MT-2 cells (MTT assay); format: cell-based
Protocol: as §1

HIV-1NL4-3 [7] = experiment: In vitro selection of resistant HIV-1 variants in MT-4 cells; format: cell-based; settings: HIV-1NL4-3 in MT-4 cells, increasing concentrations
Text: MT-4 cells (10^5/ml) were exposed to HIV-1NL4-3 (500 TCID50) and cultured in the presence of compounds at an initial concentration of its EC50 value. Viral replication was monitored by the determination of the amount of p24 produced by MT-4 cells. The supernatants were harvested on day 7 and were used to infect fresh MT-4 cells for the next round of culture in the presence of increasing concentrations of each compound. Proviral DNAs obtained from the lysates of infected cells were subjected to sequencing. This selection procedure was carried out until the drug concentration reached 5 μM as previously described[20]–[22]).

[8] = Human immunodeficiency virus 1, PHA-PBMC

In the case of CC(C)CN(C[C@@H](O)[C@H](Cc1ccccc1)NC(=O)O[C@H]1CCOC1)S(=O)(=O)c1ccc(N)cc1 [APV, Amprenavir], the “passage at which selection concentration reached 5 µM” value (HIV-1NL4-3 [1]) is listed as no less than 20, the CC50 [2] is listed as 48200 ± 9900 nM and the EC50 [3] is listed as 41 ± 2 nM. For the same compound, the EC50 (HIV-1LAI; Human immunodeficiency virus 1, MT2, MT-2 cells) was 37 ± 7 nM, the “Selectivity Index (CC50/EC50) MT2/HIV-1LAI” value (HIV-1LAI) was 1,303 and the EC50 (HIV-2ROD; Human immunodeficiency virus 2, MT2, MT-2 cells) was 297 ± 174 nM. For the same compound, the “Selectivity Index (CC50/EC50) MT2/HIV-2ROD” value (HIV-2ROD) was 162, the EC50 (HIV-1MDR/C; [8]) was 250 ± 50 nM and the “fold change of EC50 HIV-1MDR/C” value (HIV-1MDR/C) was 6. For the same compound, the EC50 (HIV-1MDR/B; [8]) was 420 ± 50 nM, the “fold change of EC50 HIV-1MDR/B” value (HIV-1MDR/B) was 11 and the EC50 (HIV-1BaL (subtype B, R5)) was 29 ± 2 nM. The EC50 (HIV-1MDR/G; [8]) was 300 ± 90 nM, the “fold change of EC50 HIV-1MDR/G” value (HIV-1MDR/G) was 8 and the EC50 [4] was 22 ± 40 nM. For the same compound, the EC50 (HIV-1MDRmix DRV ^R 20P; Human immunodeficiency virus 1, read-out: EC50 HIV-1MDRmix DRV ^R 20P, PHA-PBMC, p24 Gag production) was greater than 1000 nM, the “fold change of EC50 HIV-1MDRmix DRV ^R 20P” value (HIV-1MDRmix DRV ^R 20P) was greater than 26 and the EC50 (HIV-1MDR/TM; [8]) was 320 ± 50 nM. The “fold change of EC50 HIV-1MDR/TM” value (HIV-1MDR/TM) was 8, the EC50 [5, 8] was 39 ± 5 nM and the EC50 (HIV-1APV ^R 5μM; Human immunodeficiency virus 1, MT4, read-out: EC50 HIV-1APV ^R 5μM, MT-4 cells, p24 Gag production) was greater than 1000 nM. For the same compound, the “fold change of EC50 HIV-1APV ^R 5μM” value (HIV-1APV ^R 5μM) was greater than 25, the EC50 (HIV-1LPV ^R 5μM; Human immunodeficiency virus 1, MT4, read-out: EC50 HIV-1LPV ^R 5μM, MT-4 cells, p24 Gag production) was greater than 1000 nM and the “fold change of EC50 HIV-1LPV ^R 5μM” value (HIV-1LPV ^R 5μM) was greater than 25. The EC50 (HIV-1ATV ^R 5μM; Human immunodeficiency virus 1, MT4, read-out: EC50 HIV-1ATV ^R 5μM, MT-4 cells, p24 Gag production) was 350 ± 70 nM, the “fold change of EC50 HIV-1ATV ^R 5μM” value (HIV-1ATV ^R 5μM) was 9 and the EC50 (HIV-1_9510 ^R 36P; Human immunodeficiency virus 1, MT4, read-out: EC50 HIV-19510RP36) was 270 ± 20 nM. For the same compound, the “fold change of EC50 HIV-19510RP36” value (HIV-1_9510 ^R 36P; compared to EC50 for HIV-1NL4-3, Supplemental Table 3) was 9 and the EC50 (HIV-1NL4-3 [6]; Human immunodeficiency virus 1, MT4, MT-4 cells) was 30 ± 6 nM.
For COc1ccc(S(=O)(=O)N(CC(C)C)CC(O)C(Cc2ccccc2)NC(=O)OC2C3COC4OCC2C4C3)cc1 (centres unmarked) [GRL-09610], the CC50 (MT-2 cells) was 33100 ± 1000 nM, the EC50 (HIV-1LAI; MT-2 cells) was 2.3 ± 0.7 nM and the “Selectivity Index (CC50/EC50) MT2/HIV-1LAI” value (HIV-1LAI) was 14,391. For the same compound, the EC50 (HIV-2ROD; MT-2 cells) was 15 ± 9 nM, the “Selectivity Index (CC50/EC50) MT2/HIV-2ROD” value (HIV-2ROD) was 2,207 and the “passage at which selection concentration reached 5 µM” value (HIV-1NL4-3 [7]) was roughly 43. The EC50 (HIV-1MDR/C; PHA-PBMC) was 4.9 ± 1.8 nM, the “fold change of EC50 HIV-1MDR/C” value (HIV-1MDR/C) was 2 and the EC50 (HIV-1MDR/B; PHA-PBMC) was 14.5 ± 1.3 nM. The “fold change of EC50 HIV-1MDR/B” value (HIV-1MDR/B) was 5, the EC50 (HIV-1MDR/G; PHA-PBMC) was 15.8 ± 13.3 nM and the “fold change of EC50 HIV-1MDR/G” value (HIV-1MDR/G) was 5. For the same compound, the “fold change of EC50 HIV-1MDRmix DRV ^R 20P” value (HIV-1MDRmix DRV ^R 20P) was 78, the EC50 (HIV-1MDRmix DRV ^R 20P; read-out: EC50 HIV-1MDRmix DRV ^R 20P, PHA-PBMC, p24 Gag production) was 250 ± 30 nM and the EC50 (HIV-1MDR/TM; PHA-PBMC) was 28.9 ± 1.6 nM. The “fold change of EC50 HIV-1MDR/TM” value (HIV-1MDR/TM) was 9, the EC50 ([5]; PHA-PBMC) was 3.2 ± 0.2 nM and the “fold change of EC50 HIV-1APV ^R 5μM” value (HIV-1APV ^R 5μM) was 97. For the same compound, the EC50 (HIV-1APV ^R 5μM; read-out: EC50 HIV-1APV ^R 5μM, MT-4 cells, p24 Gag production) was 310 ± 90 nM, the “fold change of EC50 HIV-1LPV ^R 5μM” value (HIV-1LPV ^R 5μM) was 10 and the EC50 (HIV-1LPV ^R 5μM; read-out: EC50 HIV-1LPV ^R 5μM, MT-4 cells, p24 Gag production) was 32 ± 1 nM. The “fold change of EC50 HIV-1ATV ^R 5μM” value (HIV-1ATV ^R 5μM) was 11, the EC50 (HIV-1ATV ^R 5μM; read-out: EC50 HIV-1ATV ^R 5μM, MT-4 cells, p24 Gag production) was 35.4 ± 0.8 nM and the EC50 (HIV-1NL4-3 [6]; MT-4 cells) was 3.2 ± 0.2 nM.
